Experimental data published in ChEMBL document CHEMBL1133482, “1-Phenyl-5-pyrazolyl ureas: potent and selective p38 kinase inhibitors” (Bioorg Med Chem Lett, 2000).
Converted amounts (≈) assume the structure as drawn.

experiment: Aqueous solubility at pH 7.5; type: physicochemical

In order of falling solubility:
1. CC(C)(C)c1cc(NC(=O)Nc2cccc(Cl)c2Cl)n(-c2cccc(N)c2)n1  594 µg/mL (≈ 1420 µM)
2. CC(C)(C)c1cc(NC(=O)Nc2cccc(Cl)c2Cl)n(-c2ccc(S(C)(=O)=O)cc2)n1  79 µg/mL (≈ 164 µM)
3. CC(C)(C)c1cc(NC(=O)Nc2cccc(Cl)c2Cl)n(-c2ccc([N+](=O)[O-])cc2)n1  66 µg/mL (≈ 147 µM)
4. COc1cccc(-n2nc(C(C)(C)C)cc2NC(=O)Nc2cccc(Cl)c2Cl)c1  46 µg/mL (≈ 106 µM)
5. CC(C)(C)c1cc(NC(=O)Nc2cccc(Cl)c2Cl)n(-c2ccccc2)n1  24 µg/mL (≈ 59.5 µM)
6. CC(C)(C)c1cc(NC(=O)Nc2cccc(Cl)c2Cl)n(-c2cccc([N+](=O)[O-])c2)n1  18 µg/mL (≈ 40.2 µM)
7. CC(C)(C)c1cc(NC(=O)Nc2cccc(Cl)c2Cl)n(-c2cccc(F)c2)n1  17 µg/mL (≈ 40.4 µM)
